Reference: ChEMBL document CHEMBL2331154 (J Med Chem, 2013)
The source made the active and inactive calls. The rule behind the calls is not given here.

Legend:
[1] = target: T1, Heat shock protein HSP 90-alpha (Homo sapiens, UniProt P07900); test: Binding affinity to recombinant Hsp90 alpha (unknown origin) by surface plasmon resonance
[2] = target: T1, Heat shock protein HSP 90-alpha; test: Inhibition of Hsp90 alpha (unknown origin) ATPase activity after 60 mins by fluorimetry
[3] = target: T1, Heat shock protein HSP 90-alpha; test: Inhibition of Hsp90 alpha (unknown origin) assessed as thermal-induced citrate synthase aggregation at 4 fold molar excess by fluorimetry
[4] = target: T1, Heat shock protein HSP 90-alpha; test: Inhibition of Hsp90 alpha in human HeLa cells assessed as reduction in ERK1/ERK2 level at 50 uM after 24 hrs by Western blot analysis; assay type: cell-based
[5] = target: T1, Heat shock protein HSP 90-alpha; test: Inhibition of Hsp90 alpha (unknown origin) assessed as thermal-induced citrate synthase aggregation at 0.3 uM by fluorimetry relative to control
HeLa [6] = test: Cytotoxicity against human HeLa cells assessed as cell viability up to 100 uM after 24 hrs by MTT assay; assay type: cell-based
[7] = target: T1, Heat shock protein HSP 90-alpha; test: Inhibition of Hsp90 alpha in human HeLa cells assessed as reduction in p-AKT level at 50 uM after 24 hrs by Western blot analysis; assay type: cell-based
HeLa [8] = test: Increase in Hsp70 level in human HeLa cells at 50 uM after 24 hrs by Western blot analysis; assay type: functional, cell-based

## O=C(OC[C@H]1O[C@@H](O[C@@H]2C[C@@]3(O)CO[C@H]4OCC[C@@H]2[C@H]43)[C@H](O)[C@@H](O)[C@@H]1O)c1ccc(O)cc1
[1]
  Kd: Not Active

## O=C(O[C@@H]1C[C@@](O)(CO)[C@H]2[C@H](O[C@@H]3O[C@H](CO)[C@@H](O)[C@H](O)[C@H]3O)OC=C[C@H]21)c1ccc(O)cc1
[1]; read-out: Kd
  Kd: 31 nM

## CO[C@H]1C[C@@H]2[C@@H]3[C@@H](OC[C@]3(O)C[C@H]2OC(=O)c2ccc(O)cc2)O1
[1]
  Kd: Not Active

## COc1cc(/C=C/C(=O)O[C@H]2[C@@H]3C=CO[C@@H](O[C@@H]4O[C@H](CO)[C@@H](O)[C@H](O)[C@H]4O)[C@@H]3[C@@]3(CO)O[C@@H]23)ccc1O
[1]
  Kd: Not Active

## O[C@@H]1C[C@@]2(O)CO[C@H]3OCC[C@@H]1[C@H]32
[1]
  Kd: Not Active

## O=C(O[C@@H]1C=C(CO)[C@@H]2[C@H](O[C@@H]3O[C@H](CO)[C@@H](O)[C@H](O)[C@H]3O)OC=C[C@@H]21)c1ccc(O)cc1
[1]
  Kd: Not Active

## COc1cc(/C=C/C(=O)O[C@@H]2C[C@@](O)(CO)[C@H]3[C@H](O[C@@H]4O[C@H](CO)[C@@H](O)[C@H](O)[C@H]4O)OC=C[C@H]32)ccc1O
[1]
  Kd: Not Active

## O=C(/C=C\c1ccc(O)cc1)O[C@@H]1C[C@@](O)(CO)[C@H]2[C@H](O[C@@H]3O[C@H](CO)[C@@H](O)[C@H](O)[C@H]3O)OC=C[C@H]21
[1]; read-out: Kd
  Kd: 73 nM

## O=C(O[C@@H]1C[C@@]2(O)CO[C@@H]3CC1C2[C@H](O[C@@H]1O[C@H](CO)[C@@H](O)[C@H](O)[C@H]1O)O3)c1ccc(O)cc1
[1]
  Kd: Not Active

## O=C(O[C@H]1[C@@H]2CCO[C@@H](O[C@@H]3O[C@H](CO)[C@@H](O)[C@H](O)[C@H]3O)[C@@H]2[C@@]2(CO)O[C@@H]12)c1ccc(O)cc1
[1]; read-out: Kd
  Kd: 16 nM

## O=C(OC[C@H]1O[C@@H](O[C@@H]2OC=C[C@@H]3[C@H]2[C@](O)(CO)C[C@H]3OC(=O)c2ccc(O)cc2)[C@H](O)[C@@H](O)[C@@H]1O)c1ccc(O)cc1
[1]; read-out: Kd
  Kd: 139 nM

## COc1ccc(C=CC(=O)O[C@@H]2C[C@@](O)(CO)[C@H]3[C@H](O[C@@H]4O[C@H](CO)[C@@H](O)[C@H](O)[C@H]4O)OC=C[C@H]32)cc1O (mixture of isomers)
[1]
  Kd: Not Active

## O=C(C=Cc1ccc(O)cc1)O[C@@H]1C[C@@](O)(CO)[C@H]2[C@H](O[C@@H]3O[C@H](CO)[C@@H](O)[C@H](O)[C@H]3O)OC=C[C@H]21 (mixture of isomers)
[1]
  Kd: Not Active

## COc1ccc(C=CC(=O)O[C@@H]2C[C@@](O)(CO)[C@H]3[C@H](O[C@@H]4O[C@H](CO)[C@@H](O)[C@H](O)[C@H]4O)OC=C[C@H]32)cc1 (mixture of isomers)
[1]
  Kd: Not Active

## C[C@H]1[C@H]2[C@H](O[C@@H]3O[C@H](CO)[C@@H](O)[C@H](O)[C@H]3O)OC[C@](C)(O)[C@H]2C[C@@H]1O [ADENOSMOSIDE]
[1]
  Kd: Not Active

## O=C(O[C@H]1[C@@H]2C=CO[C@@H](O[C@@H]3O[C@H](CO)[C@@H](O)[C@H](O)[C@H]3O)[C@@H]2[C@@]2(CO)O[C@@H]12)[C@H]1[C@H](C(=O)O[C@H]2[C@@H]3C=CO[C@@H](O[C@@H]4O[C@H](CO)[C@@H](O)[C@H](O)[C@H]4O)[C@@H]3[C@@]3(CO)O[C@@H]23)[C@@H](c2ccc(O)cc2)[C@@H]1c1ccc(O)cc1 [ARGENTEOSIDE A]
[2]
  inhibition: Dose-dependent effect
[3]
  inhibition: Active
[4]
  inhibition: Active
[1]; read-out: Kd
  Kd: 14 nM
[5]
  inhibition: Active
HeLa [6]
  Activity: Non-toxic
[7]
  inhibition: Active
HeLa [8]
  Activity: inactive

## O=C(O[C@H]1[C@@H]2C=CO[C@@H](O[C@@H]3O[C@H](CO)[C@@H](O)[C@H](O)[C@H]3O)[C@@H]2[C@@]2(CO)O[C@@H]12)[C@H]1[C@H](c2ccc(O)cc2)[C@H](C(=O)O[C@H]2[C@@H]3C=CO[C@@H](O[C@@H]4O[C@H](CO)[C@@H](O)[C@H](O)[C@H]4O)[C@@H]3[C@@]3(CO)O[C@@H]23)[C@H]1c1ccc(O)cc1 [ARGENTEOSIDE B]
[2]
  inhibition: Dose-dependent effect
[1]; read-out: Kd
  Kd: 50 nM

## O=C(O[C@@H]1C[C@@]2(O)CO[C@H]3O[C@H](O)C[C@@H]1[C@H]32)c1ccc(O)cc1 [CATALPIN]
[1]; read-out: Kd
  Kd: 5920 nM

## O=C(O[C@H]1[C@@H]2C=CO[C@@H](O[C@@H]3O[C@H](CO)[C@@H](O)[C@H](O)[C@H]3O)[C@@H]2[C@@]2(CO)O[C@@H]12)c1ccc(O)cc1 [CATALPOSIDE]
[2]
  inhibition: Dose-dependent effect
[1]; read-out: Kd
  Kd: 12 nM

## COc1cc(C(=O)O[C@H]2[C@@H]3C=CO[C@@H](O[C@@H]4O[C@H](CO)[C@@H](O)[C@H](O)[C@H]4O)[C@@H]3[C@@]3(CO)O[C@@H]23)ccc1O [PICROSIDE II]
[1]
  Kd: Not Active

## O[C@H]1[C@@H]2CCO[C@@H]3OC[C@@](O)([C@@H]32)[C@@H]1O [REHMAGLUTIN A]
[1]; read-out: Kd
  Kd: 2390 nM

## C=C[C@H]1[C@H](O[C@@H]2O[C@H](CO)[C@@H](O)[C@H](O)[C@H]2O)OC=C(C(=O)OC)[C@H]1CC=O [SECOLOGANIN]
[1]
  Kd: Not Active

## O=C(/C=C/c1ccc(O)cc1)O[C@H]1[C@@H]2C=CO[C@@H](O[C@@H]3O[C@H](CO)[C@@H](O)[C@H](O)[C@H]3O)[C@@H]2[C@@]2(CO)O[C@@H]12 [SPECIOSIDE]
[2]
  inhibition: Dose-dependent effect
[1]; read-out: Kd
  Kd: 26 nM

## O=C(/C=C/c1ccc(O)cc1)O[C@H]1[C@@H]2C=CO[C@@H](O[C@@H]3O[C@H](CO)[C@@H](O)[C@H](O)[C@H]3O)[C@@H]2[C@@](O)(CO)[C@@H]1O [STEREOSPERMOSIDE]
[1]
  Kd: Not Active

## C=C[C@H]1[C@H](O[C@@H]2O[C@H](CO)[C@@H](O)[C@H](O)[C@H]2O)OC=C2C(=O)OCC[C@H]21 [SWEROSIDE]
[1]
  Kd: Not Active

## O=C(/C=C/c1ccc(O)c(O)c1)O[C@@H]1C2C=CO[C@H](O[C@@H]3O[C@H](CO)[C@@H](O)[C@H](O)[C@H]3O)C2[C@]2(CO)O[C@H]12 (stereo partly specified) [VERMINOSIDE]
[1]; read-out: Kd
  Kd: 348 nM
